pIC50: −log10 of the molar value. Calls of active or inactive are those of the source. The calls are words filed in the database; no cut-off is given here.
Key:
MKN-45 [1] = experiment: Induction of apoptosis in human MKN45 cells assessed as necrotic cells at 10.1 uM after 48 hrs by annexin V/PI double staining based flow cytometry (reference value: 0.1%); format: functional
NB-4 [2] = experiment: Induction of apoptosis in human NB4 cells assessed as necrotic cells at 2.30 uM after 48 hrs by annexin V/PI double staining based flow cytometry (reference value: 0.6%); format: functional
MKN-45 [3] = experiment: Induction of morphological changes in human MKN45 cells assessed as change in cytomembrane permeability at 0.41 uM after 48 hrs by acridine orange/ethidium bromide staining based fluorescence microscopy; format: functional, cell-based
MKN-45 [4] = experiment: Induction of apoptosis in human MKN45 cells assessed as late apoptotic cells at 2.03 uM after 48 hrs by annexin V/PI double staining based flow cytometry (reference value: 0%); format: functional
MKN-45 [5] = experiment: Induction of apoptosis in human MKN45 cells assessed as early apoptotic cells at 2.03 uM after 48 hrs by annexin V/PI double staining based flow cytometry (reference value: 0.1%); format: functional
MKN-45 [6] = experiment: Induction of morphological changes in human MKN45 cells assessed as cell shrinkage at 0.41 uM after 48 hrs by acridine orange/ethidium bromide staining based fluorescence microscopy; format: functional
MKN-45 [7] = experiment: Induction of morphological changes in human MKN45 cells assessed as late apoptotic cells at 10.1 uM after 48 hrs by acridine orange/ethidium bromide staining based fluorescence microscopy; format: functional, cell-based
MKN-45 [8] = experiment: Induction of apoptosis in human MKN45 cells assessed as viable cells at 10.1 uM after 48 hrs by annexin V/PI double staining based flow cytometry (reference value: 99.8%); format: functional; details: MKN-45, 48 h, read-out: Activity
MKN-45 [9] = experiment: Induction of apoptosis in human MKN45 cells after 48 hrs by acridine orange/ethidium bromide staining based fluorescence microscopy; format: functional, cell-based
NB-4 [10] = experiment: Induction of apoptosis in human NB4 cells assessed as late apoptotic cells at 11.5 uM after 48 hrs by annexin V/PI double staining based flow cytometry (reference value: 0.7%); format: functional
MKN-45 [11] = experiment: Induction of morphological changes in human MKN45 cells assessed as condensation of cell nuclei and chromatins at 0.41 uM after 48 hrs by acridine orange/ethidium bromide staining based fluorescence microscopy; format: functional
[12] = Antiproliferative activity against human MKN45 cells at 20 uM after 48 hrs by MTT assay relative to control; format: functional; details: MKN-45, 48 h, read-out: GI
MKN-45 [13] = experiment: Induction of apoptosis in human MKN45 cells assessed as late apoptotic cells at 10.1 uM after 48 hrs by annexin V/PI double staining based flow cytometry (reference value: 0%); format: functional
MKN-45 [14] = experiment: Induction of apoptosis in human MKN45 cells assessed as viable cells at 2.03 uM after 48 hrs by annexin V/PI double staining based flow cytometry (reference value: 99.8%); format: functional; details: MKN-45, 48 h, read-out: Activity
[15] = Cytotoxicity against human NB4 cells assessed as decrease in cell viability after 48 hrs by MTT assay; format: functional, cell-based; details: NB-4, 48 h
MKN-45 [16] = experiment: Induction of apoptosis in human MKN45 cells after 48 hrs by annexin V/PI double staining based flow cytometry; format: functional, cell-based
MKN-45 [17] = experiment: Induction of morphological changes in human MKN45 cells assessed as pyknosis in early apoptotic events at 0.41 uM after 48 hrs by acridine orange/ethidium bromide staining based fluorescence microscopy; format: functional, cell-based
NB-4 [18] = experiment: Induction of apoptosis in human NB4 cells assessed as viable cells at 2.30 uM after 48 hrs by annexin V/PI double staining based flow cytometry (reference value: 96.4%); format: functional; details: NB-4, 48 h, read-out: Activity
NB-4 [19] = experiment: Induction of apoptosis in human NB4 cells assessed as necrotic cells at 11.5 uM after 48 hrs by annexin V/PI double staining based flow cytometry (reference value: 0.6%); format: functional
NB-4 [20] = experiment: Induction of apoptosis in human NB4 cells assessed as early apoptotic cells at 2.30 uM after 48 hrs by annexin V/PI double staining based flow cytometry (reference value: 2.3%); format: functional
[21] = Antiproliferative activity against human NB4 cells at 5 uM after 48 hrs by MTT assay relative to control; format: functional; details: NB-4, 48 h, read-out: GI
NB-4 [22] = experiment: Induction of apoptosis in human NB4 cells after 48 hrs by annexin V/PI double staining based flow cytometry; format: functional, cell-based
MKN-45 [23] = experiment: Induction of morphological changes in human MKN45 cells assessed as apoptotic cells at 2.03 uM after 48 hrs by acridine orange/ethidium bromide staining based fluorescence microscopy; format: functional, cell-based
[24] = Cytotoxicity against primary goat fetal fibroblast assessed as decrease in cell viability after 48 hrs by MTT assay; format: toxicity; details: goat (Capra hircus), primary goat fetal fibroblasts
[25] = Cytotoxicity against primary porcine fetal kidney cells assessed as decrease in cell viability after 48 hrs by MTT assay; format: toxicity, cell-based; details: pig (Sus scrofa)
NB-4 [26] = experiment: Induction of morphological changes in human NB4 cells assessed as apoptotic features at 0.46 to 11.5 uM after 48 hrs by acridine orange/ethidium bromide staining based fluorescence microscopy; format: functional, cell-based
MKN-45 [27] = experiment: Induction of apoptosis in human MKN45 cells assessed as early apoptotic cells at 10.1 uM after 48 hrs by annexin V/PI double staining based flow cytometry (reference value: 0.1%); format: functional
[28] = Cytotoxicity against human MKN45 cells assessed as decrease in cell viability after 48 hrs by MTT assay; format: functional, cell-based; details: MKN-45, 48 h
MKN-45 [29] = experiment: Induction of apoptosis in human MKN45 cells assessed as necrotic cells at 2.03 uM after 48 hrs by annexin V/PI double staining based flow cytometry (reference value: 0.1%); format: functional
NB-4 [30] = experiment: Induction of apoptosis in human NB4 cells assessed as viable cells at 11.5 uM after 48 hrs by annexin V/PI double staining based flow cytometry (reference value: 96.4%); format: functional; details: NB-4, 48 h, read-out: Activity
NB-4 [31] = experiment: Induction of apoptosis in human NB4 cells assessed as early apoptotic cells at 11.5 uM after 48 hrs by annexin V/PI double staining based flow cytometry (reference value: 2.3%); format: functional
NB-4 [32] = experiment: Induction of apoptosis in human NB4 cells assessed as late apoptotic cells at 2.30 uM after 48 hrs by annexin V/PI double staining based flow cytometry (reference value: 0.7%); format: functional

For `COc1cccc2c1C=[N+](c1ccccc1I)CC2.[Br-]`, the Activity (MKN-45 [1]) was 1.9%, the Activity (NB-4 [2]) was 0% and the Activity (MKN-45 [3]) was “Active”. The Activity (MKN-45 [4]) was 4.6%, the Activity (MKN-45 [5]) was 12.8% and the Activity (MKN-45 [6]) was “Active”. For the same molecule, the Activity (MKN-45 [7]) was “Active”, the viability at 10.1 µM (MKN-45 [8]) was 46% and the Activity (MKN-45 [9]) was “Dose-dependent effect”. For the same molecule, the Activity (NB-4 [10]) was 7.1%, the Activity (MKN-45 [11]) was “Active” and the inhibition of growth at 20 µM [12] was 90.9%. For the same molecule, the Activity (MKN-45 [13]) was 32%, the viability at 2.03 µM (MKN-45 [14]) was 82.2% and the pIC50 [15] was 5.64. For the same molecule, the Activity (MKN-45 [16]) was “Dose-dependent effect”, the Activity (MKN-45 [17]) was “Active” and the viability at 2.3 µM (NB-4 [18]) was 90.1%. The Activity (NB-4 [19]) was 0.3%, the Activity (NB-4 [20]) was 7.7% and the inhibition of growth at 5 µM [21] was 49.7%. For the same molecule, the Activity (NB-4 [22]) was “Dose-dependent effect”, the Activity (MKN-45 [23]) was “Active” and the IC50 at 48 h [24] was 3.51 µM. For the same molecule, the IC50 at 48 h [25] was 2.41 µM, the Activity (NB-4 [26]) was “Active” and the Activity (MKN-45 [27]) was 20.1%. The pIC50 [28] was 5.69, the Activity (MKN-45 [29]) was 0.4% and the viability at 11.5 µM (NB-4 [30]) was 77.9%. For the same molecule, the Activity (NB-4 [31]) was 14.7% and the Activity (NB-4 [32]) was 2.2%.

Source: ChEMBL document CHEMBL3870340, “Cytotoxic activity, apoptosis induction and structure-activity relationship of 8-OR-2-aryl-3,4-dihydroisoquinolin-2-ium salts as promising anticancer agents” (Bioorg Med Chem Lett, 2017)
